Laboratory results published in patent publication US20260224494A1, “MILVEXIAN PHARMACEUTICAL COMPOSITIONS” (BRISTOL-MYERS SQUIBB COMPANY, priority 2023, published 2026).
Several values for one entry are separate records, joined by “and”; a condition that tells them apart may be missing. Equal entries are not always repeated. Where two headings read alike, the source gives them in different places.

Experiments:
Type in all cases: physicochemical
[1] = Solubility test of milvexian (P1.Acetone) in DCM/MeOH 70/30 w/w %, appearance over 20 hours; details: 3.75 g in 19.83 g DCM and 8.5 g MeOH (70/30 w/w %); approximately 20 hours stirring
Procedure: Due to the turbid appearance of the solution when dissolving the milvexian (P1.Acetone) in 70/30 w/w % DCM/MeOH, a solubility test was performed by adding 3.75 g of milvexian (P1.Acetone) to a mixture of 19.83 g DCM and 8.5 g MeOH (DCM/MeOH 70/30 w/w %) under stirring by a magnetic stirrer. The appearance of the solution was evaluated at different timepoints over 20 hours.

[2] = Solubility in different aqueous media at 37° C.; details: for solubility at 1 day / solubility at 3 days: 37 °C, thermodynamic from solid
[3] = Solubility of milvexian forms in organic solvent systems; details: 20 °C, organic solvent or mixture, thermodynamic from solid, 20° C.; for solubility at 2 weeks: read-out: Solubility in mg/mL solution 2 weeks; for solubility at 24 hours: read-out: Solubility in mg/mL solution 24 hours
Procedure: While heating of the feed solution is a viable solution for production, it is a more complex set-up and with risk of crashing out dissolved solids in case of cold spots and plant safety. Various solvent systems (See Table 11 below) were investigated with primary focus on solvent systems containing DCM due to its low boiling point and excellent solubilization properties.
Based on the data it was determined that 70/30 w/w % DCM/MeOH and 80/20 w/w % were promising solvent mixtures and more accurate solubility determination was carried out for 80/20 w/w % DCM/MeOH for both FORM A and P1.Acetone solvate at 20° C. with the results shown in Table 12 below.
P1.Acetone was the preferred crystalline form of milvexian for physical stability and manufacturability reasons. Based on the above, 80/20 w/w % DCM/MeOH solvent system was selected for development due to highly increase solubility over the 90/10 w/w % Acetone/Water solvent system.

## C[C@@H]1CCC[C@H](n2cnc(-c3cc(Cl)ccc3-n3cc(Cl)nn3)cc2=O)c2cc(ccn2)-c2c(cnn2C(F)F)NC1=O [P1.Acetone solvate]
[1]
  solubility test, appearance of the solution: not fully dissolved
[2]; 0.05M sodium acetate buffer pH 4.5, 1 day, single replicates
  Solubility, μg dissolved per mL at 37° C., replicates: 1.57 µg/mL
[2]; 0.05M sodium acetate buffer pH 4.5, 3 days, single replicates
  Solubility, μg dissolved per mL at 37° C., replicates: 1.95 µg/mL
[2]; 0.05M sodium phosphate buffer pH 6.8, 1 day, single replicates
  Solubility, μg dissolved per mL at 37° C., replicates: 1.29 µg/mL and 1.48 µg/mL
[2]; 0.05M sodium phosphate buffer pH 6.8, 3 days, single replicates
  Solubility, μg dissolved per mL at 37° C., replicates: 1.62 µg/mL
[2]; 0.1M HCl, pH 1, simulated gastric fluid, 0.1M HCl, 1 day, average of 3 replicates, read-out: Solubility, μg dissolved per mL at 37° C., Average
  solubility at 1 day: 3.43 µg/mL
[2]; 0.1M HCl, pH 1, simulated gastric fluid, 0.1M HCl, 1 day, single replicates, read-out: Solubility, μg dissolved per mL at 37° C., replicates
  solubility at 1 day: 3.36 µg/mL
[2]; 0.1M HCl, pH 1, simulated gastric fluid, 0.1M HCl, 3 days, average of 3 replicates, read-out: Solubility, μg dissolved per mL at 37° C., Average
  solubility at 3 days: 3.49 µg/mL
[2]; 0.1M HCl, pH 1, simulated gastric fluid, 0.1M HCl, 3 days, single replicates, read-out: Solubility, μg dissolved per mL at 37° C., replicates
  solubility at 3 days: 3.59 µg/mL
[2]; 0.1M HCl, 1 day, single replicates
  Solubility, μg dissolved per mL at 37° C., replicates: 3.47 µg/mL and 3.46 µg/mL
[2]; 0.1M HCl, 3 days, single replicates
  Solubility, μg dissolved per mL at 37° C., replicates: 3.30 µg/mL and 3.58 µg/mL
[2]; sodium acetate buffer, pH 4.5, aqueous buffer, 0.05M sodium acetate buffer pH 4.5, 1 day, average of 3 replicates, read-out: Solubility, μg dissolved per mL at 37° C., Average
  solubility at 1 day: 1.69 µg/mL
[2]; sodium acetate buffer, pH 4.5, aqueous buffer, 0.05M sodium acetate buffer pH 4.5, 1 day, single replicates, read-out: Solubility, μg dissolved per mL at 37° C., replicates
  solubility at 1 day: 1.81 µg/mL
[2]; sodium acetate buffer, pH 4.5, aqueous buffer, 0.05M sodium acetate buffer pH 4.5, 3 days, average of 3 replicates, read-out: Solubility, μg dissolved per mL at 37° C., Average
  solubility at 3 days: 1.88 µg/mL
[2]; sodium acetate buffer, pH 4.5, aqueous buffer, 0.05M sodium acetate buffer pH 4.5, 3 days, single replicates, read-out: Solubility, μg dissolved per mL at 37° C., replicates
  solubility at 3 days: 1.85 µg/mL
[2]; sodium phosphate buffer, pH 6.8, aqueous buffer, 0.05M sodium phosphate buffer pH 6.8, 1 day, average of 3 replicates, read-out: Solubility, μg dissolved per mL at 37° C., Average
  solubility at 1 day: 1.43 µg/mL
[2]; sodium phosphate buffer, pH 6.8, aqueous buffer, 0.05M sodium phosphate buffer pH 6.8, 1 day, single replicates, read-out: Solubility, μg dissolved per mL at 37° C., replicates
  solubility at 1 day: 1.53 µg/mL
[2]; sodium phosphate buffer, pH 6.8, aqueous buffer, 0.05M sodium phosphate buffer pH 6.8, 3 days, average of 3 replicates, read-out: Solubility, μg dissolved per mL at 37° C., Average
  solubility at 3 days: 1.6 µg/mL
[2]; sodium phosphate buffer, pH 6.8, aqueous buffer, 0.05M sodium phosphate buffer pH 6.8, 3 days, single replicates, read-out: Solubility, μg dissolved per mL at 37° C., replicates
  solubility at 3 days: 1.56 µg/mL
[3]; 60/40 DCM/MeOH, 60/40 DCM/MeOH
  solubility at 2 weeks: 99 mg/mL
  solubility at 24 hours: 102 mg/mL
[3]; 70/30 DCM/MeOH, 70/30 DCM/MeOH
  solubility at 2 weeks: 160 mg/mL
[3]; 80/20 DCM/MeOH, 80/20 DCM/MeOH
  solubility at 2 weeks: 227 mg/mL
  solubility at 24 hours: 226 mg/mL
[3]; 90/10 DCM/MeOH, 90/10 DCM/MeOH
  solubility at 2 weeks: 225 mg/mL
  solubility at 24 hours: 222 mg/mL
[3]; 95/5 DCM/MeOH, 95/5 DCM/MeOH
  solubility at 2 weeks: 162 mg/mL
  solubility at 24 hours: 163 mg/mL
[3]; 100% DCM, 100% DCM
  solubility at 2 weeks: 33 mg/mL
  solubility at 24 hours: 33 mg/mL
[3]; 100% MeOH, 100% MeOH
  solubility at 2 weeks: 4.8 mg/mL
  solubility at 24 hours: 4.6 mg/mL
